These results are taken from the supplement of paper PMC11208160.
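Also: IS621 recombinase and bridge RNA in Escherichia coli cells.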

This series is described as follows: recombinant barcode read abundance after kanamycin selection (control-corrected) (log10(CPM+1)); higher = more efficient recombination; sequences stand for … in AGTGCAGAGAAAATCGGCCAGTTTTCTCTGCCTGCAGTCCGCATGCCGT…AGATTTATGCAGCGGACTGCCTTTCTCCCAAAGTGATAAACCGGACAGTATCATGGACCGGTTTTCCCGGTAATCCGTATTTGCAAGGTTGGTTTCACT; site = the 11-nt target. An outline of the steps:
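Oligos holding a promoter, target, barcode and the J23119-driven first 104 bases of the bridge RNA were Gibson-cloned into a vector that supplied the other 73 bp plus a T7-inducible recombinase. This library was co-electroporated with a donor plasmid into E. coli. Two replicates went on chloramphenicol/ampicillin LB agar (control) and two on chloramphenicol/ampicillin/kanamycin with 0.1 mM IPTG. Recombination efficiency is read from averaged, control-corrected barcode counts per million at recombinant junctions, reported as log10(CPM+1).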
Turning to “GCCCGATCTTGGGTTCTAACCTGTTGCCT (site GCCCCATCTAG)”, the “recombinant barcode read abundance (log10)” value stood at 0.179.

As for “GCCCGATCTTGGGTTCTAACCTGTTGCCT (site GCCCGATCTAG)”, the “recombinant barcode read abundance (log10)” value was 1.42.

As for “GCCCGATCTTGGGTTCTAACCTGTTGCCT (site GCCCTATCTAG)”, the “recombinant barcode read abundance (log10)” value was found to be 0.0709.

As for “GCCCGGGCTTGGGTTCTAACCTGTTGCGG (site GCCCGGGCTCC)”, the “recombinant barcode read abundance (log10)” value stood at 2.39.

Take “GCCCGGGCTTGGGTTCTAACCTGTTGCGG (site GGCCGGGCTCC)”: the “recombinant barcode read abundance (log10)” value amounted to 0.022.

“GCCCTATCTTGGGTTCTAACCTGTTGCCT (site GCCCAATCTAG)”: the “recombinant barcode read abundance (log10)” value is 0.0981.

For the sequence “GCCCTATCTTGGGTTCTAACCTGTTGCCT (site GCCCCATCTAG)”, the “recombinant barcode read abundance (log10)” value worked out at 0.107.

Take “GCCCTATCTTGGGTTCTAACCTGTTGCCT (site GCCCGATCTAG)”: the “recombinant barcode read abundance (log10)” value was 0.0182.

Turning to “GCCCTATCTTGGGTTCTAACCTGTTGCCT (site GCCCTATCTAG)”, the “recombinant barcode read abundance (log10)” value was 1.35.

As for “GCCCTGCCTTGGGTTCTAACCTGTTGCGT (site GCCCTGCCTAC)”, the “recombinant barcode read abundance (log10)” value turned out to be 2.62.

For “GCCCTGCCTTGGGTTCTAACCTGTTGCGT (site TACCTGCCTAC)”, the “recombinant barcode read abundance (log10)” value was determined as 0.133.

With “GCCGAAACTTGGGTTCTAACCTGTTGCCT (site GCCGAAACTAG)”, the “recombinant barcode read abundance (log10)” value is 0.0181.

As to “GCCGAAACTTGGGTTCTAACCTGTTGCCT (site GCCGACACTAG)”, the “recombinant barcode read abundance (log10)” value stood at 0.0951.

Consider “GCCGAAACTTGGGTTCTAACCTGTTGCCT (site GCCGAGACTAG)”, for which the “recombinant barcode read abundance (log10)” value is 0.052.

As for “GCCGAAACTTGGGTTCTAACCTGTTGCCT (site GCCGATACTAG)”, the “recombinant barcode read abundance (log10)” value came out at 0.311.

As for “GCCGAGCCTTGGGTTCTAACCTGTTGCCA (site GCCGAGCCTTG)”, the “recombinant barcode read abundance (log10)” value worked out at 0.21.

“GCCGAGCCTTGGGTTCTAACCTGTTGCCA (site TAGTGAACTGT)”: the “recombinant barcode read abundance (log10)” value stood at 0.432.

On to “GCCGAGGCTTGGGTTCTAACCTGTTGCTG (site GCCGAGGCTCA)”, for which the “recombinant barcode read abundance (log10)” value worked out at 0.439.

With “GCCGAGGCTTGGGTTCTAACCTGTTGCTG (site GTCTAGGCTCA)”, the “recombinant barcode read abundance (log10)” value was found to be 0.326.

As to “GCCGAGTCTTGGGTTCTAACCTGTTGCAC (site GCCGAGTCTAG)”, the “recombinant barcode read abundance (log10)” value was found to be 0.288.

Turning to “GCCGAGTCTTGGGTTCTAACCTGTTGCAC (site GCCGAGTCTGT)”, the “recombinant barcode read abundance (log10)” value amounted to 1.25.

In the case of “GCCGAGTCTTGGGTTCTAACCTGTTGCTA (site GCCGAGTCTAA)”, the “recombinant barcode read abundance (log10)” value amounted to 0.0891.

For the sequence “GCCGAGTCTTGGGTTCTAACCTGTTGCTA (site GCCGAGTCTCA)”, the “recombinant barcode read abundance (log10)” value is 0.357.

For the sequence “GCCGAGTCTTGGGTTCTAACCTGTTGCTA (site GCCGAGTCTGA)”, the “recombinant barcode read abundance (log10)” value was determined as 0.0866.

Turning to “GCCGAGTCTTGGGTTCTAACCTGTTGCTA (site GCCGAGTCTTA)”, the “recombinant barcode read abundance (log10)” value is 0.411.

For the sequence “GCCGATACTTGGGTTCTAACCTGTTGCCT (site GCCGAAACTAG)”, the “recombinant barcode read abundance (log10)” value turned out to be 0.

For “GCCGATACTTGGGTTCTAACCTGTTGCCT (site GCCGACACTAG)”, the “recombinant barcode read abundance (log10)” value is 0.171.

As to “GCCGATACTTGGGTTCTAACCTGTTGCCT (site GCCGAGACTAG)”, the “recombinant barcode read abundance (log10)” value came out at 0.197.

As to “GCCGATACTTGGGTTCTAACCTGTTGCCT (site GCCGATACTAG)”, the “recombinant barcode read abundance (log10)” value turned out to be 0.113.

For “GCCGGGCCTTGGGTTCTAACCTGTTGCCT (site GCCGGGCCTAG)”, the “recombinant barcode read abundance (log10)” value was 0.265.

For “GCCGGGCCTTGGGTTCTAACCTGTTGCCT (site GCTGCGCCTAG)”, the “recombinant barcode read abundance (log10)” value turned out to be 0.0616.

For “GCCGGGGCTTGGGTTCTAACCTGTTGCCG (site GCCAGGGCTCG)”, the “recombinant barcode read abundance (log10)” value was 0.262.

In the case of “GCCGGGGCTTGGGTTCTAACCTGTTGCCG (site GCCCGGGCTCG)”, the “recombinant barcode read abundance (log10)” value turned out to be 0.452.

For the sequence “GCCGGGGCTTGGGTTCTAACCTGTTGCCG (site GCCGGGGCTCG)”, the “recombinant barcode read abundance (log10)” value was found to be 0.186.

In the case of “GCCGGGGCTTGGGTTCTAACCTGTTGCCG (site GCCTGGGCTCG)”, the “recombinant barcode read abundance (log10)” value was 0.258.

As for “GCCGTCCCTTGGGTTCTAACCTGTTGCTA (site GCCGTCCCTTA)”, the “recombinant barcode read abundance (log10)” value amounted to 0.202.

For “GCCGTCCCTTGGGTTCTAACCTGTTGCTA (site GTCGTCCCTTG)”, the “recombinant barcode read abundance (log10)” value turned out to be 0.106.

For the sequence “GCCGTCTCTTGGGTTCTAACCTGTTGCCT (site GCCATCTCTAG)”, the “recombinant barcode read abundance (log10)” value was 0.114.

On to “GCCGTCTCTTGGGTTCTAACCTGTTGCCT (site GCCGTCTCTAG)”, for which the “recombinant barcode read abundance (log10)” value is 0.135.

On to “GCCTCGCCTTGGGTTCTAACCTGTTGCAG (site GCCACGCCTCT)”, for which the “recombinant barcode read abundance (log10)” value was determined as 0.341.

As to “GCCTCGCCTTGGGTTCTAACCTGTTGCAG (site GCCCCGCCTCT)”, the “recombinant barcode read abundance (log10)” value came out at 0.133.

Turning to “GCCTCGCCTTGGGTTCTAACCTGTTGCAG (site GCCGCGCCTCT)”, the “recombinant barcode read abundance (log10)” value came to 0.326.

Regarding “GCCTCGCCTTGGGTTCTAACCTGTTGCAG (site GCCTCGCCTCT)”, the “recombinant barcode read abundance (log10)” value is 0.229.

On to “GCCTGCCCTTGGGTTCTAACCTGTTGCTG (site GCCTGCCCTCA)”, for which the “recombinant barcode read abundance (log10)” value was 1.51.

As to “GCCTGCCCTTGGGTTCTAACCTGTTGCTG (site TGGGTGACTAG)”, the “recombinant barcode read abundance (log10)” value was found to be 0.0502.

Regarding “GCGAAGTCTTGGGTTCTAACCTGTTGCTT (site GCGAACACTAA)”, the “recombinant barcode read abundance (log10)” value amounted to 0.0375.

Take “GCGAAGTCTTGGGTTCTAACCTGTTGCTT (site GCGAAGTCTAA)”: the “recombinant barcode read abundance (log10)” value came to 1.15.

In the case of “GCGAATCCTTGGGTTCTAACCTGTTGCCT (site GCGAATCCTAG)”, the “recombinant barcode read abundance (log10)” value amounted to 0.845.

“GCGAATCCTTGGGTTCTAACCTGTTGCCT (site GCGCATCCTAG)”: the “recombinant barcode read abundance (log10)” value is 0.213.

In the case of “GCGAATCCTTGGGTTCTAACCTGTTGCCT (site GCGGATCCTAG)”, the “recombinant barcode read abundance (log10)” value turned out to be 0.069.

On to “GCGAATCCTTGGGTTCTAACCTGTTGCCT (site GCGTATCCTAG)”, for which the “recombinant barcode read abundance (log10)” value was found to be 0.099.

In the case of “GCGACTCCTTGGGTTCTAACCTGTTGCAT (site GCGACTCCTAT)”, the “recombinant barcode read abundance (log10)” value was determined as 0.857.

Regarding “GCGACTCCTTGGGTTCTAACCTGTTGCAT (site GCGCCTCCTAT)”, the “recombinant barcode read abundance (log10)” value was 0.118.

For “GCGACTCCTTGGGTTCTAACCTGTTGCAT (site GCGGCTCCTAT)”, the “recombinant barcode read abundance (log10)” value worked out at 0.14.

Consider “GCGACTCCTTGGGTTCTAACCTGTTGCAT (site GCGTCTCCTAT)”, for which the “recombinant barcode read abundance (log10)” value turned out to be 0.0718.

With “GCGACTCCTTGGGTTCTAACCTGTTGCTA (site GAGACTCCTTA)”, the “recombinant barcode read abundance (log10)” value was determined as 0.739.

Regarding “GCGACTCCTTGGGTTCTAACCTGTTGCTA (site GCGACTCCTTA)”, the “recombinant barcode read abundance (log10)” value is 0.619.

Regarding “GCGAGCTCTTGGGTTCTAACCTGTTGCCT (site GCGAGCTCTAG)”, the “recombinant barcode read abundance (log10)” value was 1.6.

“GCGAGCTCTTGGGTTCTAACCTGTTGCCT (site GCGCGTTCTAG)”: the “recombinant barcode read abundance (log10)” value was found to be 0.291.

As for “GCGATGTCTTGGGTTCTAACCTGTTGCCT (site GAGATGTCTAG)”, the “recombinant barcode read abundance (log10)” value is 0.183.

With “GCGATGTCTTGGGTTCTAACCTGTTGCCT (site GCGATGTCTAG)”, the “recombinant barcode read abundance (log10)” value amounted to 1.33.

For the sequence “GCGATGTCTTGGGTTCTAACCTGTTGCCT (site GGGATGTCTAG)”, the “recombinant barcode read abundance (log10)” value turned out to be 0.514.

Regarding “GCGATGTCTTGGGTTCTAACCTGTTGCCT (site GTGATGTCTAG)”, the “recombinant barcode read abundance (log10)” value amounted to 0.116.

On to “GCGCGGCCTTGGGTTCTAACCTGTTGCTT (site GCACGCCCTAA)”, for which the “recombinant barcode read abundance (log10)” value was determined as 0.0904.

For “GCGCGGCCTTGGGTTCTAACCTGTTGCTT (site GCGCGGCCTAA)”, the “recombinant barcode read abundance (log10)” value stood at 0.492.

For “GCGCTAACTTGGGTTCTAACCTGTTGCCT (site GCGCTAACTAG)”, the “recombinant barcode read abundance (log10)” value was 1.05.

“GCGCTAACTTGGGTTCTAACCTGTTGCCT (site TCGCTAACTAG)”: the “recombinant barcode read abundance (log10)” value was found to be 0.169.

In the case of “GCGCTCCCTTGGGTTCTAACCTGTTGCCT (site GCACTCCCTAG)”, the “recombinant barcode read abundance (log10)” value came out at 1.25.

Regarding “GCGCTCCCTTGGGTTCTAACCTGTTGCCT (site GCCCTCCCTAG)”, the “recombinant barcode read abundance (log10)” value came out at 0.388.

As for “GCGCTCCCTTGGGTTCTAACCTGTTGCCT (site GCGCTCCCTAG)”, the “recombinant barcode read abundance (log10)” value came to 0.926.

In the case of “GCGCTCCCTTGGGTTCTAACCTGTTGCCT (site GCTCTCCCTAG)”, the “recombinant barcode read abundance (log10)” value amounted to 0.145.

Regarding “GCGGACTCTTGGGTTCTAACCTGTTGCCA (site GCGGACTCTTG)”, the “recombinant barcode read abundance (log10)” value was found to be 2.09.

On to “GCGGACTCTTGGGTTCTAACCTGTTGCCA (site GCGTACTCTAG)”, for which the “recombinant barcode read abundance (log10)” value was 0.0401.

Consider “GCGGAGTCTTGGGTTCTAACCTGTTGCGT (site GCGGAGTCTAC)”, for which the “recombinant barcode read abundance (log10)” value worked out at 1.45.

As to “GCGGAGTCTTGGGTTCTAACCTGTTGCGT (site GCTAAGTCTAC)”, the “recombinant barcode read abundance (log10)” value turned out to be 0.0484.

With “GCGGATCCTTGGGTTCTAACCTGTTGCCT (site GCGAATCCTAG)”, the “recombinant barcode read abundance (log10)” value came out at 0.824.

Regarding “GCGGATCCTTGGGTTCTAACCTGTTGCCT (site GCGCATCCTAG)”, the “recombinant barcode read abundance (log10)” value came out at 0.0111.
